Data taken from patent US12428389B2, “Diarylamide compound and application thereof” (Sunshine Lake Pharma Co., Ltd., priority 2019, dated 2025).

Experiments:
SD rats [1] = assay: single subcutaneous injection, diuretic effect in rats (metabolic cage); assay type: in vivo; conditions: 100 mg/kg subcutaneous
Protocol: The urine collection system was siliconized in advance to prevent urine loss. […] Solvent control: corn oil. The weight of urine was measured by the weight loss method and converted to volume (1 g≈1 mL). […] The peak of the diuretic effect was at 4 h after administration, and the duration of the diuretic effect was about 6-8 h. The results were shown as means±SEM, n=6. The urine osmotic pressure of the collected urine was measured by using a freezing point osmometer. […] The peak of action was at 4 h after administration, and returned to the level before administration at 6-8 h after administration. The results were shown as means±SEM, n=6. The urine samples were detected by using a urea kit for the level of urea in the urine. According to the previously measured urine volume, urine osmotic pressure and urea excretion per 2 h, the excretion of non-urea solutes per 2 h was calculated. […] The results were shown as means±SEM, n=6.

SD rats [2] = assay: single intragastric administration, diuretic effect in rats (metabolic cage); assay type: in vivo; conditions: 100 mg/kg, single (FIG. 5: intragastric)
Protocol: The urine collection system was siliconized in advance to prevent urine loss. […] The weight of urine was measured by the weight loss method and converted to volume (1 g≈1 mL). […] Urine volume began to rise at 2 h after administration, the peak of diuretic effect was at 4 h after administration, and the duration of diuretic effect was about 6-8 h. The results were shown as means±SEM, n=6. The urine osmotic pressure of the collected urine was measured by using a freezing point osmometer. […] The peak of action was at 4 h after administration, and recovered to the level before administration at 6-8 h after administration. The results were shown as means±SEM, n=6. Urine samples were detected by using a urea kit for the level of urea in the urine. According to the previously measured urine volume, urine osmotic pressure and urea excretion per 2 h, the excretion of non-urea solutes per 2 h was calculated. […] C57BL/6J mice, male, 6 in each group, weighing 20˜22 g, were taken. […] The urine collection system was siliconized in advance to prevent urine loss. […] Solvent control: CMC-Na. The weight of urine was measured by the weight loss method and converted to volume (1 g≈1 mL). […] The results were shown as means±SEM, n=6. The urine osmotic pressure of the collected urine was measured by using a freezing point osmometer. […] The results were shown as means±SEM, n=6. The urine samples were detected by using a urea kit for the level of urea in the urine. According to the previously measured urine volume, urine osmotic pressure and urea excretion per 2 h, the excretion of non-urea solutes per 2 h was calculated. […] The results were shown as means ±SEM, n=6.

MDCK cells = assay: MDCK cytotoxicity test, CCK-8 kit; assay type: cell-based; conditions: 7.8-125 μM, cultured for 12 h
Protocol: In order to study the cytotoxicity of the compound of the present invention, an MDCK cytotoxicity test was completed by using a CCK-8 kit. […]. In this study, a CCK-8 kit was used to detect the cytotoxicity of compounds: MDCK cell suspension in logarithmic growth phase was inoculated into a 96-well culture plate (1×10^4 cells/well/100 μL), and 100 μL of DMEM culture solution containing 10% fetal bovine serum, 100 U/mL penicillin and 100 μg/mL streptomycin was administrated to each well, then cultured in a 37° C., 5% CO2 incubator. When the cells were 70%-80% confluent, serum starvation was performed for 12 h for synchronization. […]. At the same time, blank wells (medium, CCK-8) and control wells (cells, dissolving medium of the same concentration compound, medium, CCK-8) were set up, 3 replicate wells per group. Cell survival rate was calculated: cell survival rate (%)=[(ODexperimental well−ODblank well)/(ODcontrol well−ODblank well)]×100%, wherein OD refers to the absorbance value of each well.

SD rats [3] = assay: toxicity after 7 days intragastric administration in rats (organ indexes, serum, kidney histology)
Protocol: Normal SD rats, 8 weeks old, male, 8 rats in each group were taken. The animals were placed in a metabolic cage and acclimatized for three days prior to the experiment, on a standard diet with free access to water. […] The administration was continued for 7 days. On the 7th day, the rats were anesthetized with sodium pentobarbital, and the liver and kidney were taken, weighed, and the kidney weight index and liver weight index were calculated. […] The kidney tissue was immersed in a fixative solution (4% paraformaldehyde), embedded with a paraffin embedding machine, and then cut into 6 μm thick paraffin sections by a paraffin microtome. […] The sections were observed under an optical microscope. The inner medulla, outer medulla, and cortex of each kidney were selected for comparative observation by an optical microscope. […] Blood was collected by cardiac puncture, then centrifuged to obtain serum, which was used to measure serum indexes by instruments.

CC(=O)Nc1ccc(NC(=O)c2ccc([N+](=O)[O-])o2)cc1 [Example 3, N-(4-acetamidophenyl)-5-nitrofuran-2-carboxamide]
duration of the diuretic effect (SD rats [1]): 6 to 8 h | peak of action on urine osmotic pressure, time after administration (SD rats [1]): 4 h | peak of the diuretic effect, time after administration (SD rats [1]): 4 h | urine osmotic pressure returned to the level before administration, time after administration (SD rats [1]): 6 to 8 h | duration of diuretic effect (SD rats [2]): 6 to 8 h | peak of action on urine osmotic pressure, time after administration (SD rats [2]): 4 h | peak of diuretic effect, time after administration (SD rats [2]): 4 h | urine osmotic pressure recovered to the level before administration, time after administration (SD rats [2]): 6 to 8 h | urine volume began to rise, time after administration (SD rats [2]): 2 h | cytotoxic effect (cell survival rate) (MDCK cells): no significant cytotoxic effect | serum urea level (SD rats [3]; 100 mg/kg intragastric every 8 h, vs control): no significant statistical difference | inner medullary tubules, histology (SD rats [3]; HE sections): tubule swelling appeared in the inner medullary | histological morphology of the kidney (SD rats [3]; HE sections, inner medulla, outer medulla, cortex): did not significantly affect | Serum chlorine (SD rats [3]; n = 8): 101.7 ± 1.3 mM | Serum cholesterol (SD rats [3]; n = 8): 1.59 ± 0.06 mM | Serum glucose (SD rats [3]; n = 8): 9.4 ± 0.3 mM | Serum high-density lipoprotein (SD rats [3]; n = 8): 0.71 ± 0.03 mM | Serum low-density lipoprotein (SD rats [3]; n = 8): 0.34 ± 0.03 mM | Serum potassium (SD rats [3]; n = 8): 4.8 ± 0.2 mM | Serum sodium (SD rats [3]; n = 8): 147.3 ± 2.0 mM | Serum triglyceride (SD rats [3]; n = 8): 0.68 ± 0.07 mM
